# Laboratory results taken from US7208521B2, “Selective inhibitors of the urokinase plasminogen activator” (Wilex AG, priority 1999, dated 2007).
# Read-outs that look alike come from different tables or passages of the source.
# Experiments:
# Trypsin = target: T1, Trypsin (UniProt P00760); test: In-vitro protease inhibition, chromogenic substrate, Dixon Ki; assay type: biochemical
# T1 sequence (P00760 1-246): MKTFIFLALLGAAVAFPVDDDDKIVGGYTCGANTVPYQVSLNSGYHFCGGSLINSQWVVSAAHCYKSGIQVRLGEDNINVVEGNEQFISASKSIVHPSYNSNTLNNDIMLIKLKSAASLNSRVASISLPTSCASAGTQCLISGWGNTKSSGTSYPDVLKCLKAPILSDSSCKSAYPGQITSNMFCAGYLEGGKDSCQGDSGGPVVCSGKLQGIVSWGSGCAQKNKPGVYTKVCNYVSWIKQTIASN
# Protocol: The Ki values were determined by linear regression according to Dixon by means of a computer program.
# sc-urokinase (uPA) = target: T2, sc-urokinase (uPA) (Homo sapiens, UniProt P00749); test: In-vitro inhibition of urokinase, chromogenic substrate, Dixon Ki; assay type: biochemical
# T2 construct: purchased Ribosepharm GmbH, Haan, Germany
# Protocol: (§1) The uPA inhibitor activity was determined by incubating 200 μl of Tris buffer (0.05 mol/l, containing the inhibitor, 0.154 mol/l NaCl, 5% ethanol, pH 8.0), 25 μl of substrate (Pefachrome UK or BZ-β-Ala-Gly-Arg-pNA in H2O; Pentapharm Ltd, Basle, Switzerland) and 50 μl of sc-urokinase (Ribosepharm GmbH, Haan, Germany) or another corresponding protease at 25° C. After 3 min, the reaction was interrupted by adding 25 μl of acetic acid (50%) and absorbance at 405 nm was determined by means of a microplate reader (MR 5000, Dynatech, Denkendorf, Germany). The Ki values were determined by linear regression according to Dixon by means of a computer program. The Ki values are the average of at least three determinations, and the standard deviation was below 25%.
# Thrombin = Thrombin (Homo sapiens, UniProt P00734); test: In-vitro protease inhibition, chromogenic substrate, Dixon Ki; assay type: biochemical
# Protocol: as §1
# F Xa = F Xa (Homo sapiens, UniProt P00742); test: as above; assay type: biochemical
# Protocol: as §1
# Plasmin = Plasmin (Homo sapiens, UniProt P00747); test: as above; assay type: biochemical; details: 25° C., pH 8.0
# Protocol: as §1
# [1] = test system: rat breast adenocarcinoma cells; details: after i.v. inoculation of tumor cells; cited from earlier work
# [2] = test system: DU145 tumors (a prostate adenocarcinoma cell line); details: oral, daily dose of 125 to 250 mg/kg/day; cited from earlier work
# mouse breast cancer = details: cited from earlier work
# rat prostate cancer = details: syngeneic rat prostate cancer; cited from earlier work
# [3] = 25° C., pH 8.0; read-out: Ki Trypsin
# [4] = 25° C., pH 8.0, average of at least three determinations, read-out: Ki uPA
# [5] = 25° C., pH 8.0, read-out: Ki Thrombin
# [6] = 25° C., pH 8.0, read-out: Ki F Xa
# [7] = read-out: Ki Trypsin; 25° C., pH 8.0
# [8] = Ki uPA, 25° C., pH 8.0, average of at least three determinations
# Plasmin, sequence (P00747 581-810 limits assumed, species assumed): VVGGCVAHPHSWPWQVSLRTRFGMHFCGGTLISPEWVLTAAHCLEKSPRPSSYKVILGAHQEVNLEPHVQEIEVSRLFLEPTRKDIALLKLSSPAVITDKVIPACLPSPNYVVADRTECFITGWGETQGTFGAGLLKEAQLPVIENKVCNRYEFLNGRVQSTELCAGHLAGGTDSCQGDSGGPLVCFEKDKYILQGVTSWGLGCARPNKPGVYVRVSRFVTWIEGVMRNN
# Plasmin, sequence (P00747 97-580 partner limits assumed, species assumed): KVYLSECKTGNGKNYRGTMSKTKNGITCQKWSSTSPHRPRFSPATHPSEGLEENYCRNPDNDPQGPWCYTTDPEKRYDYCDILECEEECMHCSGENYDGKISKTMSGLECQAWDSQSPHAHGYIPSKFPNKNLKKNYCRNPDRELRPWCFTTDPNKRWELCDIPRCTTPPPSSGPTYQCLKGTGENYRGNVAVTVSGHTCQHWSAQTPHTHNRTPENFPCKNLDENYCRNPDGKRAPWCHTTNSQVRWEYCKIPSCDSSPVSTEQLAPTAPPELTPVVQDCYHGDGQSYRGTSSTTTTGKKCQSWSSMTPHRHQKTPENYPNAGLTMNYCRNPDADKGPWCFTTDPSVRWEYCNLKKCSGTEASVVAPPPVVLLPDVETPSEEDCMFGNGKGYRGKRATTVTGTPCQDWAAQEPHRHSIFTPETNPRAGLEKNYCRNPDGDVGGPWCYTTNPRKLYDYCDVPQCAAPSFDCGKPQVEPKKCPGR
# F Xa, sequence (P00742 235-488 limits assumed): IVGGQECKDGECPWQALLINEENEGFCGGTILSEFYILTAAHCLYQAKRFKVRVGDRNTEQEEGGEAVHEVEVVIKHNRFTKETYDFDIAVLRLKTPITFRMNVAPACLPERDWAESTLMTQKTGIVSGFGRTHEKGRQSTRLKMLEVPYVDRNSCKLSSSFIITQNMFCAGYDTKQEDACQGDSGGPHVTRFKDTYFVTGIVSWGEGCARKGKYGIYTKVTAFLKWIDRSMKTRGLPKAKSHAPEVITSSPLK
# F Xa, sequence (P00742 41-179 partner limits assumed): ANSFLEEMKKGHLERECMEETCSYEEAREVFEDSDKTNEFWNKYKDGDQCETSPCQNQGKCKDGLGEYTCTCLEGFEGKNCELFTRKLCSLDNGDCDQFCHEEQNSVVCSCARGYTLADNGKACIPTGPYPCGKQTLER
Ki (Trypsin; [3]) [µM],Ki (sc-urokinase (uPA); [4]) [µM],Ki (Thrombin; [5]) [µM],Ki (F Xa; [6]) [µM],Ki (Plasmin) [µM],Structure (SMILES),other results
> 1000,> 1000,> 1000,> 1000,> 1000,N=C(N)Nc1ccc(N)cc1 [ST 267],
46,2.4,600,> 1000,> 1000,N=C(N)Nc1ccc(CNC(=O)NC23C[C@H]4C[C@@H](C2)C[C@@H](C3)C4)cc1 [ST 293],"uPA inhibition, result in words (sc-urokinase (uPA)): particularly effective and selective inhibitors; Ki (sc-urokinase (uPA); read-out: Ki value for uPA): > 1000 µM"
> 1000,51,> 1000,> 1000,> 1000,CC(C)(C)COC(=O)NCc1ccc(NC(=N)N)cc1 [ST 271],
,,,,,N=C(N)Nc1ccc(CNC(=O)Oc2ccc(/N=N/c3ccccc3)cc2)cc1 [ST 315],Ki (Trypsin; [7]): 200 µM; Ki (sc-urokinase (uPA); [8]): 11 µM; Ki (sc-urokinase (uPA); Ki value for uPA): > 1000 µM; Ki (Thrombin): > 1000 µM; Ki (F Xa): > 1000 µM
37,42,> 1000,> 1000,> 1000,CC(C)c1cc(C(C)C)c(S(=O)(=O)NCC(=O)NCc2ccc(NC(=N)N)cc2)c(C(C)C)c1 [ST 298],
> 1000,> 1000,> 1000,> 1000,> 1000,N=C(N)Nc1ccc(CN)cc1 [ST 275],
,,,,,CC(C)(c1ccc(OC(=O)NCc2ccc(NC(=N)N)cc2)cc1)c1ccc(OC(=O)NCc2ccc(NC(=N)N)cc2)cc1 [ST 312],"Ki (Trypsin; [7]): 100 µM; uPA inhibition, result in words (sc-urokinase (uPA)): particularly effective and selective inhibitors; Ki (sc-urokinase (uPA); [8]): 2.8 µM; Ki (sc-urokinase (uPA); Ki value for uPA): > 1000 µM; Ki (Thrombin): > 1000 µM; Ki (F Xa): > 1000 µM"
> 1000,27,> 1000,> 1000,> 1000,CCOC(=O)NCc1ccc(NC(=N)N)cc1 [ST 269],
,35,> 1000,> 1000,,COc1cc(COC(=O)NCc2ccc(NC(=N)N)cc2)c([N+](=O)[O-])cc1OC [ST 313],
,,,,,N=C(N)NC(=O)c1nc(Cl)c(N)nc1N [amiloride],formation of lung metastases [1]: prevents the formation of lung metastases
,,,,,N=C(N)c1ccc(N)cc1 [p-Aminobenzamidine],growth rate of DU145 tumors [2]: distinct decrease in the growth rate; side effects [2]: negligible
42,22,> 1000,> 1000,> 1000,CC(=O)Nc1ccc(S(=O)(=O)NCC(=O)NCc2ccc(NC(=N)N)cc2)cc1 [ST 296],
200,12,> 1000,> 1000,,N=C(N)Nc1ccc(CNC(=O)OCc2ccc([N+](=O)[O-])cc2)cc1 [ST 311],
> 1000,37,> 1000,> 1000,> 1000,CC(C)(C)OC(=O)NCC(=O)NCc1ccc(NC(=N)N)cc1 [ST 294],
,,,,,"N=C(N)c1cc2c(I)cccc2s1 [B428, 4-iodobenzo[b]thiophene-2-carboxamidine]",primary tumor growth (mouse breast cancer; administered together with the antiestrogen tamoxifen): further decrease in primary tumor growth; tumor growth and metastases formation (mouse breast cancer; syngeneic mouse breast cancer): decrease of tumor growth and metastases formation; tumor growth and metastases formation (rat prostate cancer): decrease of tumor growth and metastases formation
> 1000,52,> 1000,> 1000,130,CC(C)OC(=O)NCc1ccc(NC(=N)N)cc1 [ST 273],
> 1000,29,> 1000,330,170,N=C(N)Nc1ccc(CNC(=O)Nc2ccccc2)cc1 [ST 301],
> 1000,23,> 1000,> 1000,> 1000,N=C(N)Nc1ccc(CNC(=O)OC23C[C@H]4C[C@@H](C2)C[C@@H](C3)C4)cc1 [ST 274],
> 1000,240,> 1000,> 1000,> 1000,CC(=O)Nc1ncc(S(=O)(=O)NCc2ccc(NC(=N)N)cc2)s1 [ST 282],
> 1000,36,> 1000,> 1000,> 1000,CC(C)(C)OC(=O)NCc1ccc(NC(=N)N)cc1 [ST 242],
